Measurements taken from patent US20090305993A1, “METHODS AND COMPOSITION FOR THE TREATMENT OF GASTROINTESTINAL DISORDERS” (IRONWOOD PHARMACEUTICALS, INC., priority 2006, published 2009).
Where a SMILES comes first, the peptide text is derived from it. Bridges are numbered along the chain shown (N, C = ends). Where no end group is shown, it is not given here.

Columns and labels:
[1] = oral bioavailability in rats, LCMS; type: in vivo, rat; settings: plasma
Method: Similarly, oral bioavailability was determined in rats using LCMS methodology. Rat plasma samples containing SEQ ID NO:3 and/or SEQ ID NO:6 were extracted using a Waters Oasis MAX 96 well solid phase extraction (SPE) plate. A 200 μL volume of rat plasma was mixed with 200 μL of ^13C9, ^15N—SEQ ID NO:3 in the well of a prepared SPE plate. The samples were drawn through the stationary phase with 15 mm Hg vacuum. All samples were rinsed with 200 μL of 2% ammonium hydroxide in water followed by 200 μL of 20% methanol in water. The samples were eluted with consecutive 100 μL volumes of […] formic acid/water/methanol and 100 μL 5/15/80 formic acid/water/methanol. The samples were dried under nitrogen and resuspended in 100 μL of 20% methanol in water. Samples were analyzed by a Waters Quattro Micro mass spectrometer coupled to a Waters 1525 binary pump with a Waters 2777 autosampler. A 40 μL volume of each sample was injected onto a Thermo Hypersil GOLD C18 column (2.1×50 mm, 5 um). SEQ ID NO:3 and SEQ ID NO:6 were eluted by a gradient over 3 minutes with acetonitrile and water containing 0.05% trifluoroacetic acid. The Quattro Micro mass spectrometer was run in multiple reaction monitoring (MRM) mode using the mass transitions of 764>182 and 682>136 for SEQ ID NO:3 and SEQ ID NO:6 respectively. Using this methodology, SEQ ID NO:3 was dosed orally and by IV to rats at 10 mg/kg. […] In this experiment, the limit of detection (LOD) for SEQ ID NO:6 was 0.78 nM. SEQ ID NO:6 was detected at all time points for the intravenous dose and was not detected beyond 240 min for the oral dose. For non-detected values, the LOD was used as an upper estimate of the concentration of SEQ ID NO:6. The calculated value for AUCp.o., (0-6h) was <1308 nM-min and AUCi.v.,(0-6h) was 1,590,000 nM-min. The 6 h bioavailability of SEQ ID NO:6 determined by circulating plasma levels was 0.08%

carboxypeptidase A = molecular target: T1, carboxypeptidase A (Homo sapiens, UniProt P15085); assay: in vitro proteolytic stability, carboxypeptidase A
T1 sequence (P15085 111-419): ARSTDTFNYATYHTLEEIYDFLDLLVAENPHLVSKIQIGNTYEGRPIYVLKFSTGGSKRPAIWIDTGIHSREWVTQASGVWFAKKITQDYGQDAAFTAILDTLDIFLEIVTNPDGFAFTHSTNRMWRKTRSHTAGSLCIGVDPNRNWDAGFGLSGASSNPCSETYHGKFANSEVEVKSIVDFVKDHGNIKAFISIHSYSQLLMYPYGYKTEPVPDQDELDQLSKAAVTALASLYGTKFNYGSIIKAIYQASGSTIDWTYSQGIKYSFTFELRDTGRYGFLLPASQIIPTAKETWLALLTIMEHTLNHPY
Method: The stability of SEQ ID NO:3 in the presence of several mammalian digestive enzymes was determined. SEQ ID NO:3 was exposed to a variety of in vitro conditions including digestive enzymes and low ph environments designed to simulate gastric fluid. SEQ ID NO:3 was incubated with chymotrypsin, trypsin, pepsin, aminopeptidase, carboxypeptidase A, and simulated gastric fluid (sgf) at ph 1.0. Samples were collected at 0, 3, and 24 h for all conditions except pepsin digestion and the SGF. For the latter two conditions, samples were obtained at 0, 1, and 3 h. Negative control samples were prepared for initial and final time points. A separate, positive activity control was run in parallel to SEQ ID NO:3. All samples were analyzed by LC/MS
Five (5) μL of a 40 μg/mL carboxypeptidase inhibitor (carboxypeptidase inhibitor from potato tuber (Sigma-Aldrich, C0279) stock was added to each control sample (0 and 24 h), for a final concentration of 0.4 μg/mL. All control and test (0, 3 and 24 h) samples were incubated at 37° C. for 5 min. Twenty (20) μL of a 0.01 mg/mL carboxypeptidase A (Carboxypeptidase A from human pancreas; Sigma-Aldrich, C5358) stock was added to each sample. The samples were returned to the 37° C. water bath. The reaction was quenched with 5 μL of a 40 μg/mL carboxypeptidase inhibitor at the proper time point. No extra carboxypeptidase inhibitor was added to the control samples since there was already inhibitor present. Samples were subsequently flash frozen in liquid nitrogen, and stored at −80° C. until analysis. Upon analysis, samples were thawed and transferred to a 1 mL 96-well deep microtiter plate. […] These standards were used to generate a standard curve for quantification of samples. When necessary, the standard curves were also used to calculate the concentration of the corresponding digestion product. Ten (10) μL injections were made of each sample and standard.
To further study the SEQ ID NO:3 carboxypeptidase A digestion product, samples of 0.01 mg/mL SEQ ID NO:3 were prepared in the carboxypeptidase A reaction buffer at a total volume of 500 μL in 2 mL eppendorf tubes. Triplicate samples were prepared for the following time points: 0, 15, 30, 60, 120, 180 and 240 min. The samples were incubated at 37° C. for 5 min. Twenty (20) μL of a 0.01 mg/mL carboxypeptidase A stock were added to each sample and returned to the 37° C. water bath. The reactions were quenched with 5 μL of a 40 μg/mL carboxypeptidase inhibitor at the proper time points. Samples were subsequently flash frozen in liquid nitrogen, and stored at −80° C. until analysis. Upon analysis, samples were thawed and transferred to a 1 mL 96-well plate. Standards of SEQ ID NO:3 were prepared in carboxypeptidase A reaction buffer at 0.625, 1.25, 2.50, 5.00, and 10.00 μg/mL concentrations. These standards were used to generate a standard curve for quantification of samples. When necessary, the standard curves were also used to calculate the concentration of the corresponding digestion product. Ten (10) μL injections were made of each sample and standard. If the formation of a digestion product was evident, then a spectral analysis was used to determine the mass of the digestion product, and predict its possible identity.

mice = assay: murine gastrointestinal transit (GIT) assay, acute dosing; type: in vivo, mouse; settings: for gastrointestinal transit rate: oral, SEQ ID NO:4 0.1 mg/kg, Zelnorm 0.1 mg/kg, FIG. 3a, 3b; for intestinal transit rate versus dosage: recombinantly synthesized peptides, FIG. 4a
Method: In order to determine whether the peptides increase the rate of gastrointestinal transit, the peptides and controls were tested using a murine gastrointestinal transit (GIT) assay (Moon et al. Infection and Immunity 25:127, 1979). In this assay, charcoal, which can be readily visualized in the gastrointestinal tract is administered to mice after the administration of a test compound. The distance traveled by the charcoal is measured and expressed as a percentage of the total length of the […].
Mice were fasted with free access to water for 12 to 16 hours before the treatment with peptide or control buffer. The peptides were orally administered at 1 μg/kg-1 mg/kg of peptide in buffer (20 mM Tris pH 7.5) 7 minutes before being given an oral dose of 5% Activated Carbon (Aldrich 242276-250G). Control mice were administered buffer only before being given a dose of Activated Carbon. After 15 minutes, the mice were sacrificed and their intestines from the stomach to the cecum were dissected. The total length of the intestine as well as the distance traveled from the stomach to the charcoal front was measured for each animal and the results are expressed as the percent of the total length of the intestine traveled by the charcoal front. All results are reported as the average of 10 mice±standard deviation. A comparison of the distance traveled by the charcoal between the mice treated with peptide versus the mice treated with vehicle alone was performed using a Student's t test and a statistically significant difference was considered for P<0.05. P-values are calculated using a two-sided T-Test assuming unequal variances.

CD1 female mice = assay: murine gastrointestinal transit assay, chronic dosing; type: in vivo, mouse; settings: oral, daily for 5 days; SEQ ID NO:3 0.06 or 0.25 mg/kg; FIG. 4c
Method: The identical experiment was performed to determine if SEQ ID NO:3 is effective in a chronic dosing treatment regimen. Briefly, 8 week old CD1 female mice are dosed orally once a day for 5 days with either SEQ ID NO:3 (0.06 mg/kg or 0.25 mg/kg in 20 mM Tris pH 7.5) or vehicle alone (20 mM Tris pH 7.5). On the 5th day, a GIT assay is performed identical to that above except 200 μl of a 10% charcoal solution is administered. […] The results are shown side by side with acute dosing (1 day).

suckling mice = assay: suckling mouse model of intestinal secretion (SuMi assay); type: in vivo
Method: In this model a test compound is administered to suckling mice that are between 7 and 9 days old. After the mice are sacrificed, the gastrointestinal tract from the stomach to the cecum is dissected (“guts”). The remains (“carcass”) as well as the guts are weighed and the ratio of guts to carcass weight is calculated. If the ratio is above 0.09, one can conclude that the test compound increases intestinal secretion. […] The effect of Zelnorm® was also studied.

intestinal GC-C receptor = molecular target: T2, intestinal GC-C receptor (Homo sapiens, UniProt P25092); assay: intestinal GC-C receptor activity assay (cyclic GMP EIA) in T84 cells; type: cell-based; settings: chemically synthesized peptides, FIGS. 2a and 2b
T2 construct: monolayers of T84 cells in 24-well plates; host or cells: T84 human colon carcinoma cells
T2 sequence (P25092 24-1073): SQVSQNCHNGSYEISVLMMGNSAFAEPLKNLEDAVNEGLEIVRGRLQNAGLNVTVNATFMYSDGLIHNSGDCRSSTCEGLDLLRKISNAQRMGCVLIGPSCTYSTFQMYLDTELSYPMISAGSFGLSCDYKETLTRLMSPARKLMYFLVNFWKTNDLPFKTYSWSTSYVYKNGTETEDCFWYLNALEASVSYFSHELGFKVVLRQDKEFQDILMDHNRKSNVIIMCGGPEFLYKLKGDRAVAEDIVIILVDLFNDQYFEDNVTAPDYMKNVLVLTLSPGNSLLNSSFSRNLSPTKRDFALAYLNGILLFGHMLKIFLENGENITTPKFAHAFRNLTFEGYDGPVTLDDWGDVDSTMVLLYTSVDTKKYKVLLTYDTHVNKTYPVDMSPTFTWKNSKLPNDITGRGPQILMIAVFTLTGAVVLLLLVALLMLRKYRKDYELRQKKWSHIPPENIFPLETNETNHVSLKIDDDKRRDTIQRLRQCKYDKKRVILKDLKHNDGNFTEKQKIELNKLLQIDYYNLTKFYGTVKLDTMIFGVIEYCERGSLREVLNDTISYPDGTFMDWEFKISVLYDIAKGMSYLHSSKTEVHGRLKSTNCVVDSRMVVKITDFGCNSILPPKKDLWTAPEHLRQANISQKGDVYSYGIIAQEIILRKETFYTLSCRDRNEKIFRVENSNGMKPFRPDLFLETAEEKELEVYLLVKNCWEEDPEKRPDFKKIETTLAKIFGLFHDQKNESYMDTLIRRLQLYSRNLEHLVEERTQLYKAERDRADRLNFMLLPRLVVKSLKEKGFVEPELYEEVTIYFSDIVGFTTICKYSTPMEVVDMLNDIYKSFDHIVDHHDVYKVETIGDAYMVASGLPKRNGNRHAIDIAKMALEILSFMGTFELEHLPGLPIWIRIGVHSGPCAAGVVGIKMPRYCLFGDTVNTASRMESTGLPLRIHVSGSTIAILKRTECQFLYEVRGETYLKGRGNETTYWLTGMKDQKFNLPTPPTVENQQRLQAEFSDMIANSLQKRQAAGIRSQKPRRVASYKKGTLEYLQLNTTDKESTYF
Method: The ability of SEQ ID NO:5, SEQ ID NO:4, SEQ ID NO:3, and SEQ ID NO:6 to activate the intestinal GC-C receptor was assessed in an assay employing the T84 human colon carcinoma cell line (American Type Culture Collection (Bethesda, Md.)). For the assays cells were grown to confluency in 24-well culture plates with a 1:1 mixture of Ham's F12 medium and Dulbecco's modified Eagle's medium (DMEM), supplemented with 5% fetal calf serum and were used at between passages 54 and 60.
Briefly, monolayers of T84 cells in 24-well plates were washed twice with 1 ml/well DMEM, then incubated at 37° C. for 10 min with 0.45 ml DMEM containing 1 mM isobutylmethylxanthine (IBMX), a cyclic nucleotide phosphodiesterase inhibitor. Test peptides (50 μl) were then added and incubated for 30 minutes at 37° C. The media was aspirated and the reaction was then terminated by the addition of ice cold 0.5 ml of 0.1N HCl. The samples were held on ice for 20 minutes and then evaporated to dryness using a heat gun or vacuum centrifugation.

[2] = molecular target: T3, GC-C receptors found in rat intestinal mucosa (Rattus norvegicus, UniProt P23897); settings: same assay, observed by Giannella et al.; cited from earlier work
T3 construct: Epithelial cells from the small intestine of rats were obtained; from tissue; host or cells: rat small intestine mucosa / epithelial cell suspension
T3 sequence (P23897 23-1072): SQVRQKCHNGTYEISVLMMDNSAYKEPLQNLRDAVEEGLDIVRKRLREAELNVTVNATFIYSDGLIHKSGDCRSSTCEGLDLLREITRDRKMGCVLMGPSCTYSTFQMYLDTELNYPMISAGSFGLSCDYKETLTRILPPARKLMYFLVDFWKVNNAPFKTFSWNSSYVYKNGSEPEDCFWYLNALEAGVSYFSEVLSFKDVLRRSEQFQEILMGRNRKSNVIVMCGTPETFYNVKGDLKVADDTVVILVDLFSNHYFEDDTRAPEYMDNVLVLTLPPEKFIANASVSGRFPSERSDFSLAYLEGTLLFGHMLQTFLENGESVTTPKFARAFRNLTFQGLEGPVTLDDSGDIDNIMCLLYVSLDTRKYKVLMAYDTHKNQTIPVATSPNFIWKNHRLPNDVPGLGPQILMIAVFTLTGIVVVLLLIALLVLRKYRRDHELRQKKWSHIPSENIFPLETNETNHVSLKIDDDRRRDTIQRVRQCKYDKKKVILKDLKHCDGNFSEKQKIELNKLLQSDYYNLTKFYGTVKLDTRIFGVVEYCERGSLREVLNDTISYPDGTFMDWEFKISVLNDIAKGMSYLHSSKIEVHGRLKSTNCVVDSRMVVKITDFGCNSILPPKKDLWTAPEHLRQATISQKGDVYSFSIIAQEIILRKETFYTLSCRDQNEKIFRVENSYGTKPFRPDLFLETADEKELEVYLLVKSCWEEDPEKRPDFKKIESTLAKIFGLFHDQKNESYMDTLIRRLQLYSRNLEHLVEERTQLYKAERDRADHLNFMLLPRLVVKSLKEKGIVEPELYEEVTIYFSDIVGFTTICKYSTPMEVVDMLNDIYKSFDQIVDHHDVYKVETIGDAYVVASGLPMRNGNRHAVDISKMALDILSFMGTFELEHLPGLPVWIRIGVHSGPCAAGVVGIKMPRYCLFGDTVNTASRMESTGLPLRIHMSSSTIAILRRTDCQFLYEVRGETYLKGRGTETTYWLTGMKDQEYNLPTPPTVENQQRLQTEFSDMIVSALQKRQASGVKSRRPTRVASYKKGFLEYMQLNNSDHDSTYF

mouse = assay: phenylbenzoquinone (PBQ)-induced writhing model; settings: oral; SEQ ID NO:5 1 mg/kg, SEQ ID NO:3 2.5 mg/kg; versus vehicle control, FIGS. 8a, 8b
[3] = recombinant peptides, dose response, FIG. 6a

## C[C@@H]1NC(=O)[C@@H]2CCCN2C(=O)[C@H](CC(N)=O)NC(=O)[C@@H]2CSSC[C@H](N)C(=O)N[C@H]3CSSC[C@H](NC1=O)C(=O)N[C@@H]([C@@H](C)O)C(=O)NCC(=O)N[C@H](C(=O)O)CSSC[C@H](NC(=O)[C@H](Cc1ccc(O)cc1)NC(=O)[C@H](CCC(=O)O)NC3=O)C(=O)N2 [SEQ ID NO:6] (H-CCEYCCNPACTGC-OH; disulfide 1-6, 2-10, 5-13)
[1]; 10 mg/kg IV
  AUC, intravenous dose (AUCi.v.,(0-6h)): 1,590,000 nM-min
[1]; 10 mg/kg oral
  AUC, oral dose (AUCp.o.,(0-6h)): < 1308 nM-min
Carboxypeptidase A; carboxypeptidase A digestion of SEQ ID NO:3, T0
  average concentration: 108 (+/−2) nM
Carboxypeptidase A; carboxypeptidase A digestion of SEQ ID NO:3, T240 (240 min)
  average concentration: 726 (+/−138) nM

## [H]/N=C(/NCCCCC)N/N=C/c1c[nH]c2ccc(OC)cc12 [Zelnorm®, tegaserod, reference compound]
mice
  gastrointestinal transit rate: increase gastrointestinal transit rate
CD1 female mice
  gastrointestinal motility upon chronic dosing: effective
Suckling mice; 0.2 mg/kg
  intestinal secretion (ratio of guts to carcass weight): does not increase intestinal secretion

## NSSNYCCELCCNPACTGCY [SEQ ID NO:4]
Intestinal GC-C receptor
  activity in GC-C receptor activity assay: activity comparable to SEQ ID NO:4
mice; chemically synthesized peptides, FIG. 4b
  intestinal transit rates versus Tris buffer and Zelnorm: increase intestinal transit rates more than either Tris buffer alone or an equivalent dose of Zelnorm®
mice
  gastrointestinal transit rate: increase gastrointestinal transit rate
  intestinal transit rate versus dosage: increases with an increasing dosage
Suckling mice; dose response, FIG. 5a, 5b
  intestinal secretion (ratio of guts to carcass weight): increase intestinal secretion
Suckling mice; [3]
  intestinal secretion (ratio of guts to carcass weight): increase intestinal secretion
[2]
  Kd: ~13 nM

## NSSNYCCEYCCNPACTGCY (cysteine pairing not given here) [SEQ ID NO:5]
mice
  intestinal transit rate versus dosage: increases with an increasing dosage
Suckling mice; [3]
  intestinal secretion (ratio of guts to carcass weight): increase intestinal secretion
mouse
  writhings: Significant reductions in writhings
